Laboratory results: patent US8859018B2, “Delivery carrier for antimicrobial essential oils” (Nestec S.A., priority 2010, dated 2014)

Legend:
[1] = system: Penicillium nalgiovense (mould); assay: Challenge test with moulds in MOS / MAS; format: cell-based; details: for Week 0 (Log cfu/g) / Week 1 (Log cfu/g) / Week 2 (Log cfu/g) / Week 3 (Log cfu/g) / Week 4 (Log cfu/g): 0.10%; for mould growth: KS 0.10%; for Week 1 (Log cfu/g): key: VG: growth; NVG: no growth; for Week 2 (Log cfu/g): key: VG: growth; NVG: no growth; for Week 3 (Log cfu/g): key: VG: growth; NVG: no growth; for Week 4 (Log cfu/g): key: VG: growth; NVG: no growth
Method: (§1) Target microorganisms used for the challenge tests (CT) were Zygosaccharomyces bailii (yeast), Aspergillus niger (mould), Penicillium nalgiovense (mould) and Eurotium amstelodami (mould).
(§2) Stock culture of the mould (mould spores suspended in Tryptone Salt 0.1% diluent) was revived on RBA plates by doing a 3-point inoculation. The inoculated RBA plates were incubated at 30° C. for 36 hours or until the colonies sporulated. The spores were then aseptically sub-cultured onto PDA plates for mass harvesting of the spores. The inoculated PDA plates were then incubated for 30° C. for 36 hours or until the colonies sporulated. Then, the spores were aseptically harvested with a sterile cotton swabs and suspended in sterile Tryptone Salt 0.1% diluent. The suspensions were analyzed for mould spore counts on DG18 plates as well as for microbial contamination on PCA with Cycloheximide by spread plating 0.1-0.5 ml of suspension onto the agar plates respectively. Before the challenge test is initiated, the suspension inoculated with the mould spores was diluted aseptically with sterile Tryptone Salt 0.1% to the desired level such that the inoculation level in the product would be 2-3 log of colony-forming-units (cfu) of moulds per gram of product.
(§3) Challenge Test with moulds was according to the following steps: 1) Add 100 g of MOS into a 250 ml sterile Schott bottle with screw-cap cover; 2) Add 0.1 to 2 ml of mould (A. niger/P. nalgiovence/E. amstelodami) inoculum to meet the target inoculum of 10^2-10^3 cfu/g of MOS into the 100 g MOS and shake to mix well; 3) Pour 35 g of the inoculated MOS into a petri dish. Perform this in duplicate; 4) Pipette 1 g of inoculated MOS from the Schott bottle into 9 ml sterile Tryptone Salt 0.1% diluents and vortex. Perform this in duplicate; 5) Plate 0.1-0.5 ml of inoculated Tryptone Salt 0.1% onto DG18 plates at appropriate dilutions by Spread Plate Method. Incubate the agar plates at 25° C. for 5 days to enumerate the initial mould count; 6) Incubate the inoculated MOS in petri dishes at 30° C. for a week. Monitor for mould growth by visual observation after one week. Perform this mould growth monitoring for a period of 4 weeks; 7) The control was prepared by repeating steps 3 to 6 without using any inoculum. The control was plated onto PCA with Cycloheximide plates.
(§4) The method for producing MAS was the same as for the MOS production in experiment 4. The preparation of the microorganism cultures as well as the challenge tests were identical to the ones described in experiment 4 as well.

[2] = system: Eurotium amstelodami (mould); assay: Challenge test with moulds in MOS / MAS; format: cell-based; details: for Week 0 (Log cfu/g) / Week 1 (Log cfu/g) / Week 2 (Log cfu/g) / Week 3 (Log cfu/g) / Week 4 (Log cfu/g): 0.10%; for mould growth: KS 0.10%; for Week 1 (Log cfu/g): key: VG: growth; NVG: no growth; for Week 2 (Log cfu/g): key: VG: growth; NVG: no growth; for Week 3 (Log cfu/g): key: VG: growth; NVG: no growth; for Week 4 (Log cfu/g): key: VG: growth; NVG: no growth
Method: as §1, §2, §3, §4

[3] = MAGGI Abalone Sauce, age 0 month
[4] = MAGGI Abalone Sauce, age 1 month
[5] = MAGGI Abalone Sauce, age 3 month
[6] = MAGGI Abalone Sauce, age 6 month
[7] = MAGGI Abalone Sauce, age 10 month
[8] = MAGGI Abalone Sauce, age 12 month
[9] = MAGGI Abalone Sauce, up to 12 months, clove leaf oil 0.06 wt % and 0.15 wt %
[10] = MAGGI Oyster Sauce, garlic EO 0.06 wt % and 0.12 wt %
[11] = MAGGI Oyster Sauce, age 0 month

C/C=C/C=C/C(=O)[O-].[K+] [KS, potassium sorbate]
1.54 Log cfu/g: Week 0 (Log cfu/g) [1, 3] | Week 0 (Log cfu/g) [2, 4]
NVG: Week 1 (Log cfu/g) [1, 3] | Week 2 (Log cfu/g) [1, 3] | Week 3 (Log cfu/g) [1, 3] | Week 4 (Log cfu/g) [1, 3] | Week 1 (Log cfu/g) [1, 4] | Week 2 (Log cfu/g) [1, 4] | Week 3 (Log cfu/g) [1, 4] | Week 4 (Log cfu/g) [1, 4] | Week 1 (Log cfu/g) [1, 5] | Week 2 (Log cfu/g) [1, 5] | Week 3 (Log cfu/g) [1, 5] | Week 4 (Log cfu/g) [1, 5] | Week 1 (Log cfu/g) [1, 6] | Week 2 (Log cfu/g) [1, 6] | Week 3 (Log cfu/g) [1, 6] | Week 4 (Log cfu/g) [1, 6] | Week 1 (Log cfu/g) [1, 7] | Week 2 (Log cfu/g) [1, 7] | Week 3 (Log cfu/g) [1, 7] | Week 4 (Log cfu/g) [1, 7] | Week 1 (Log cfu/g) [1, 8] | Week 2 (Log cfu/g) [1, 8] | Week 3 (Log cfu/g) [1, 8] | Week 4 (Log cfu/g) [1, 8] | Week 1 (Log cfu/g) [1, 11] | Week 2 (Log cfu/g) [1, 11] | Week 3 (Log cfu/g) [1, 11] | Week 4 (Log cfu/g) [1, 11] | Week 1 (Log cfu/g) [2, 3] | Week 2 (Log cfu/g) [2, 3] | Week 3 (Log cfu/g) [2, 3] | Week 4 (Log cfu/g) [2, 3] | Week 1 (Log cfu/g) [2, 4] | Week 2 (Log cfu/g) [2, 4] | Week 3 (Log cfu/g) [2, 4] | Week 4 (Log cfu/g) [2, 4] | Week 1 (Log cfu/g) [2, 5] | Week 2 (Log cfu/g) [2, 5] | Week 3 (Log cfu/g) [2, 5] | Week 4 (Log cfu/g) [2, 5] | Week 1 (Log cfu/g) [2, 6] | Week 2 (Log cfu/g) [2, 6] | Week 3 (Log cfu/g) [2, 6] | Week 4 (Log cfu/g) [2, 6] | Week 1 (Log cfu/g) [2, 7] | Week 2 (Log cfu/g) [2, 7] | Week 3 (Log cfu/g) [2, 7] | Week 4 (Log cfu/g) [2, 7] | Week 1 (Log cfu/g) [2, 8] | Week 2 (Log cfu/g) [2, 8] | Week 3 (Log cfu/g) [2, 8] | Week 4 (Log cfu/g) [2, 8] | Week 1 (Log cfu/g) [2, 11] | Week 2 (Log cfu/g) [2, 11] | Week 3 (Log cfu/g) [2, 11] | Week 4 (Log cfu/g) [2, 11]
2.67 Log cfu/g: Week 0 (Log cfu/g) [2, 6]
2.69 Log cfu/g: Week 0 (Log cfu/g) [2, 5]
3.86 Log cfu/g: Week 0 (Log cfu/g) [1, 7]
not detected: mould growth [1, 9] | mould growth [1, 10] | mould growth [2, 9] | mould growth [2, 10]
2.204 Log cfu/g: Week 0 (Log cfu/g) [2, 11]
2.71 Log cfu/g: Week 0 (Log cfu/g) [1, 5]
4.079 Log cfu/g: Week 0 (Log cfu/g) [1, 11]
3.80 Log cfu/g: Week 0 (Log cfu/g) [2, 7]
1.73 Log cfu/g: Week 0 (Log cfu/g) [1, 4]
2.03 Log cfu/g: Week 0 (Log cfu/g) [1, 6]
2.38 Log cfu/g: Week 0 (Log cfu/g) [2, 8]
2.93 Log cfu/g: Week 0 (Log cfu/g) [2, 3]
3.26 Log cfu/g: Week 0 (Log cfu/g) [1, 8]
